In patent publication US11753411B2, “Substituted pyrazolo[1,5-a]pyrimidines as TYK2 pseudokinase ligands” (Ventyx Biosciences, Inc., priority 2019, dated 2023):

Tested on: IFN-a/Jak1 Tyk2
Test: Co-stimulation assay in lysed whole blood: IFNa (JAK1/TYK2) stimulated STAT1 phosphorylation
Type: cell-based
Conditions: Homo sapiens, 20 min, 100 ng/mL IFNa (with 10 ng/mL GM-CSF), pSTAT by flow cytometry
Experimental: Example 12: Co-Stimulation Assay in Lysed Whole Blood; JAK2: GM-CSF Stimulated STAT5 Phosphorylation and JAK1/TYK2 Stimulated STAT1 Phosphorylation Assay
Human Blood Lysis Using Abcam's RBC Lysis Buffer
Dilute RBC lysis buffer to 1× in distilled water. Add 2 mL blood to 38 mL of 1×RBC-lysis buffer. Incubate for 15 mins at RT, in dark. Spin at 300 g, 5 mins, to collect the pellet. Re-lyse if necessary. Re-suspend pellet in 5 mL of cRPMI.
Compound and Cytokine Treatment
Aliquot 80 μL of lysed human blood in to wells of 96 deep-well plate. Add 10 μl of (10× conc.) of different concentrations of compounds to all wells except controls (unstained and unstimulated) and mix it with the help of 100 uL multichannel. Add 10 uL of RPMI media in controls. For dilution of compounds and dilution range please refer Appendix. Incubate on water bath or CO2 incubator for 1 hour at 37° C. Add 10 μl of (10× conc.) of cytokine mix (GM-CSF and IFNa) (final conc.10 ng/mL of GM-CSF and 100 ng/mL of IFNa) to each well except unstimulated and unstained controls and incubate further for 20 minutes on water bath at 37° C.
Add 900 μL of prewarmed 1× Fix/Lyse solution (Appendix) and mix it properly using 1000 μl multichannel, incubate further on water bath at 37° C. for 10 minutes (which includes time of addition). Centrifuge at 800×g for 5 minutes at 40° C.; remove 900 uL of supernatant and add 900 μL of 1×PBS. Centrifuge at 800×g for 5 minutes at 40° C., remove 900 μL of supernatant. Wash one more time with 900 μL of PBS (optional) and resuspend pellets in 100 uL of PBS.
Disrupt the pellet by gentle tapping and resuspend in 1000 μL of BD Phosflow Perm Buffer III and incubate plate on ice for 30 minutes. Centrifuge plate at 800×g for 5 minutes at 40° C. Wash two more times with 1000 μL of BD Pharmingen Stain Buffer.
Disrupt the pellet by gentle tapping. Resuspend pellets in 100 uL of Stain Buffer and add 5 μL of pSTAT5_AF488 Ab and 5 uL of pSTAT_PE in all wells except unstained control and mix properly using 200 μl multichannel, incubate overnight at […]. Add 900 μL of wash buffer and centrifuge at 1800 rpm for 3 minutes at 40° C. Wash one more time with 1000 μL of BD Pharmingen Stain Buffer. Finally resuspend the pellet in 300 uL of BD Pharmingen Stain Buffer. Transfer the cells to 96-well v-bottom plate and acquire the cells in Beckman Coulter CytExpert. Acquiring cells in Flow Cytometer: Keep the threshold value to 250 and cell concentration should not exceed 100-500 cells/μL. Acquire at least 5,000-10,000 cells.
RPMI 1640 Complete Medium: RPMI 1640 media+10% FBS.
Cytokine dilution: 1) GM-CSF Stock at 100 ug/mL. Prepare an intermediate dilution of 1 ug/mL by adding 2 uL of stock into 198 uL of cRPMI. Further dilute to 100 ng/mL by adding 100 uL of the intermediate stock to 900 uL of cRPMI. 2) IFNa Stock at 200 ug/mL. Dilute IFNa stock 1:200 by adding 5 uL of stock into the 1000 uL of 100 ng/mL GM-CSF working stock as above to give a combined working stock of 1000 ng/mL of IFNa and 100 ng/mL GM-CSF (10×). Keep it on ice until used.
Lyse/Fix buffer preparation: Dilute 5× Lyse/Fix buffer to 1× using MQ water and keep at 37° C. until used.
BD Phosflow perm buffer III: Keep on ice/fridge.

SMILES | IC50 [nM]
CNc1cc(Nc2cccc3nccnc23)nc2c(NC(=O)NC3CC3O)cnn12 (centres unmarked) [Compound 30, 1-(2-hydroxycyclopropyl)-3-(7-(methylamino)-5-(quinoxalin-5-ylamino)pyrazolo[1,5-a]pyrimidin-3-yl)urea] | ≥ 10000
CNc1cc2nc3c(cnn13)NC(=O)NCCc1cccc(c1)N2 [Compound 25, (1^3E,1^4E)-1^7-(methylamino)-2,6,8-triaza-1(5,3)-pyrazolo[1,5-a]pyrimidina-3(1,3)-benzenacyclooctaphan-7-one] | < 1000
[2H]C([2H])([2H])Nc1cc(-c2cn(C3CCOCC3)c3ncccc23)nc2c(NC(=O)NC)cnn12 [Compound 73, 1-methyl-3-(7-((methyl-d3)amino)-5-(1-(tetrahydro-2H-pyran-4-yl)-1H-pyrrolo[2,3-b]pyridin-3-yl)pyrazolo[1,5-a]pyrimidin-3-yl)urea] | < 1000
CNC(=O)Nc1cnn2c(NC)cc(Nc3cccc(-c4cnn(C)c4)c3OC)nc12 [Compound 19, 1-(5-((2-methoxy-3-(1-methyl-1H-pyrazol-4-yl)phenyl)amino)-7-(methylamino)pyrazolo[1,5-a]pyrimidin-3-yl)-3-methylurea] | 1000 to 10000
CNc1cc(-c2cn(C(C)C)c3ncccc23)nc2c(NC(=O)N[C@H]3CC[C@H]3O)cnn12 [Compound 57, 1-((1S,2R)-2-hydroxycyclobutyl)-3-(5-(1-isopropyl-1H-pyrrolo[2,3-b]pyridin-3-yl)-7-(methylamino)pyrazolo[1,5-a]pyrimidin-3-yl)urea] | 1000 to 10000
CNc1cc(Nc2cccc3c2OCCC3(F)F)nc2c(NC(=O)N[C@@H]3C[C@@H]3F)cnn12 [Compound 184, 1-(5-((4,4-difluorochroman-8-yl)amino)-7-(methylamino)pyrazolo[1,5-a]pyrimidin-3-yl)-3-((1R,2S)-2-fluorocyclopropyl)urea] | 1000 to 10000
CNc1cc(Nc2cc(F)cc3c2OCCO3)nc2c(NC(=O)NC3CCC3)cnn12 [Compound 105, 1-cyclobutyl-3-(5-((7-fluoro-2,3-dihydrobenzo[b][1,4]dioxin-5-yl)amino)-7-(methylamino)pyrazolo[1,5-a]pyrimidin-3-yl)urea] | < 1000
CNc1cc(Nc2cc(C#N)cc3c2OCCO3)nc2c(NC(=O)NC3CCC3)cnn12 [Compound 106, 1-(5-((7-cyano-2,3-dihydrobenzo[b][1,4]dioxin-5-yl)amino)-7-(methylamino)pyrazolo[1,5-a]pyrimidin-3-yl)-3-cyclobutylurea] | 1000 to 10000
CNc1cc(Nc2cccc3c2OCCC3=O)nc2c(NC(=O)N[C@@H]3C[C@@H]3F)cnn12 [Compound 183, 1-((1R,2S)-2-fluorocyclopropyl)-3-(7-(methylamino)-5-((4-oxochroman-8-yl)amino)pyrazolo[1,5-a]pyrimidin-3-yl)urea] | < 1000
CNC(=O)Nc1cnn2c(NC)cc(Nc3cncc4ccccc34)nc12 [Compound 91, 1-(5-(isoquinolin-4-ylamino)-7-(methylamino)pyrazolo[1,5-a]pyrimidin-3-yl)-3-methylurea] | 1000 to 10000
CNC(=O)Nc1cnn2c(NC)cc(Nc3cccc4ccccc34)nc12 [Compound 160, 1-methyl-3-(7-(methylamino)-5-(naphthalen-1-ylamino)pyrazolo[1,5-a]pyrimidin-3-yl)urea] | < 1000
CNC(=O)Nc1cnn2c(NC)cc(Nc3cc(F)cc(F)c3OC)nc12 [Compound 143, 1-(5-((3,5-difluoro-2-methoxyphenyl)amino)-7-(methylamino)pyrazolo[1,5-a]pyrimidin-3-yl)-3-methylurea] | < 1000

Now from value to compound:

IC50 [nM] | SMILES
1000 to 10000 | CNC(=O)Nc1cnn2c(NC)cc(Nc3cccc4c3OCCN4C)nc12 [Compound 62, 1-methyl-3-(5-((4-methyl-3,4-dihydro-2H-benzo[b][1,4]oxazin-8-yl)amino)-7-(methylamino)pyrazolo[1,5-a]pyrimidin-3-yl)urea]
< 1000 | CNc1cc(Nc2cc(F)cc3c2OCCO3)nc2c(NC(=O)NC3CC3)cnn12 [Compound 69, 1-cyclopropyl-3-(5-((7-fluoro-2,3-dihydrobenzo[b][1,4]dioxin-5-yl)amino)-7-(methylamino)pyrazolo[1,5-a]pyrimidin-3-yl)urea]
1000 to 10000 | CNC(=O)Nc1cnn2c(NC)cc(Nc3c(C)cccc3OC)nc12 [Compound 66, 1-(5-((2-methoxy-6-methylphenyl)amino)-7-(methylamino)pyrazolo[1,5-a]pyrimidin-3-yl)-3-methylurea]
< 1000 | C#Cc1cc(Nc2cc(NC)n3ncc(NC(=O)NC)c3n2)c2c(c1)OCCO2 [Compound 109, 1-(5-((7-ethynyl-2,3-dihydrobenzo[b][1,4]dioxin-5-yl)amino)-7-(methylamino)pyrazolo[1,5-a]pyrimidin-3-yl)-3-methylurea]
< 1000 | CNC(=O)Nc1cnn2c(NC)cc(Nc3cccc4c3OCO4)nc12 [Compound 153, 1-(5-(benzo[d][1,3]dioxol-4-ylamino)-7-(methylamino)pyrazolo[1,5-a]pyrimidin-3-yl)-3-methylurea]
< 1000 | CNc1cc(Nc2cccc3c2OCCO3)nc2c(NC(=O)NC3COC3)cnn12 [Compound 117, 1-(5-((2,3-dihydrobenzo[b][1,4]dioxin-5-yl)amino)-7-(methylamino)pyrazolo[1,5-a]pyrimidin-3-yl)-3-(oxetan-3-yl)urea]
< 1000 | CNC(=O)Nc1cnn2c(NC)cc(Nc3cc(C)cc(C)c3)nc12 [Compound 152, 1-(5-((3,5-dimethylphenyl)amino)-7-(methylamino)pyrazolo[1,5-a]pyrimidin-3-yl)-3-methylurea]
1000 to 10000 | CNC(=O)Nc1cnn2c(NC)cc(Nc3ccccc3)nc12 [Compound 146, 1-methyl-3-(7-(methylamino)-5-(phenylamino)pyrazolo[1,5-a]pyrimidin-3-yl)urea]
1000 to 10000 | CNc1cc(Nc2cc(F)cc3c2OCCO3)nc2c(NC(=O)N[C@@H]3C[C@H]3F)cnn12 [Compound 187, 1-(5-((7-fluoro-2,3-dihydrobenzo[b][1,4]dioxin-5-yl)amino)-7-(methylamino)pyrazolo[1,5-a]pyrimidin-3-yl)-3-((1R,2R)-2-fluorocyclopropyl)urea]
< 1000 | CNc1cc(Nc2cc(F)cc3c2OCCO3)nc2c(NC(=O)NC(C)C#N)cnn12 (centres unmarked) [Compound 120, 1-(1-cyanoethyl)-3-(5-((7-fluoro-2,3-dihydrobenzo[b][1,4]dioxin-5-yl)amino)-7-(methylamino)pyrazolo[1,5-a]pyrimidin-3-yl)urea]
< 1000 | CNC(=O)Nc1cnn2c(NC)cc(Nc3cc(OC)cc(OC)c3)nc12 [Compound 70, 1-(5-((3,5-dimethoxyphenyl)amino)-7-(methylamino)pyrazolo[1,5-a]pyrimidin-3-yl)-3-methylurea]
< 1000 | CNc1cc(Nc2cccc3c2OCCO3)nc2c(NC(=O)N[C@@H]3C[C@@H]3C#N)cnn12 [Compound 45, 1-((1R,2S)-2-cyanocyclopropyl)-3-(5-((2,3-dihydrobenzo[b][1,4]dioxin-5-yl)amino)-7-(methylamino)pyrazolo[1,5-a]pyrimidin-3-yl)urea]
1000 to 10000 | CNC(=O)Nc1cnn2c(NC)cc(Nc3ccc4c(c3)OCCO4)nc12 [Compound 107, 1-(5-((2,3-dihydrobenzo[b][1,4]dioxin-6-yl)amino)-7-(methylamino)pyrazolo[1,5-a]pyrimidin-3-yl)-3-methylurea]
1000 to 10000 | CNc1cc(Nc2cc(C)cc3c2OCCO3)nc2c(NC(=O)NC3CC3)cnn12 [Compound 79, 1-cyclopropyl-3-(5-((7-methyl-2,3-dihydrobenzo[b][1,4]dioxin-5-yl)amino)-7-(methylamino)pyrazolo[1,5-a]pyrimidin-3-yl)urea]
